Measured values from paper PMC2678901 (Drug metabolism and disposition: the biological fate of …, 2008).

Tested on: CYP3A
Details: 5 μM inhibitor; liver microsomes of RIF-pretreated TgCYP3A4/hPXR mice; 50 μM MDZ

CC(=O)N1CCN(c2ccc(OCC3COC(Cn4ccnc4)(c4ccc(Cl)cc4Cl)O3)cc2)CC1 (stereo not shown) [ketoconazole]
Inhibition of CYP3A activity: markedly inhibited
